Reference: patent US7351732B2, “Cycloalkanedione derivatives, method for the production thereof and their pharmacological applications” (Schwarz Pharma S.L., priority 2002, dated 2008)

Columns and labels:
5-human HT1A receptor = biological target: T1, 5-human HT1A receptor (Homo sapiens, UniProt P08908); experiment: Test on adenylate cyclase in He-La cells (inhibition of forskolin stimulation); assay type: cell-based; settings: for EC50: inhibition of forskolin-stimulated adenylate cyclase, He-La cells transfected with 5-HT1A, read-out: CE50 (the source's name); for % Maximum inhibition: inhibition of the activation induced by forskolin
T1 construct: expressed in transfected cells; host or cells: HeLa cells
T1 sequence (P08908 1-422): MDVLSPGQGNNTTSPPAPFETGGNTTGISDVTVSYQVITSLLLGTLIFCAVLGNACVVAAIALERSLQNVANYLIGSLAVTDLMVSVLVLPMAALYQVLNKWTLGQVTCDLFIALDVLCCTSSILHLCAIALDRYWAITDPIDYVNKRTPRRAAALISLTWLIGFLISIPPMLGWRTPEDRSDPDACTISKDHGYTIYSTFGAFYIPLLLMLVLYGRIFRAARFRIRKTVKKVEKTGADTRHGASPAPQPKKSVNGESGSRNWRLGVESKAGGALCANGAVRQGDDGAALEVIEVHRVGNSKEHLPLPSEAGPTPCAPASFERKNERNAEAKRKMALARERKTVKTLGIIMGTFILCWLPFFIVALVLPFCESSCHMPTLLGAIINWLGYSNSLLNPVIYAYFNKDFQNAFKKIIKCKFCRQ
Excerpt: The functional character of the new compounds was initially determined by studying their effect on adenylate cyclase in He—La cells transfected with the […], measuring their inhibiting effect on the stimulation of the enzyme induced by forskolin (Table 3 below).

[1] = system: primary cultures of rat hippocampus; experiment: Apoptotic neuronal death induced by serum deprivation; settings: 24 hours without serum; compared with compound no. 1
Protocol: The neuroprotective effect of the compounds considered was studied in experimental models in vitro, using primary cultures of rat hippocampus exposed to serum deprivation, to a toxic concentration of glutamate, or incubated in conditions of hypoxia and absence of glucose.

5-HT4 receptors = biological target: T2, 5-HT4 receptors (Rattus norvegicus, UniProt Q62758); experiment: Radioligand displacement, 5-HT4 receptors, [3H]GR 113808; assay type: binding; settings: [3H]GR 113808, rat striatum; read-out: Ki ± E.E. 5-HT4
T2 construct: (d) 5-HT4 receptors, [^3H]GR 113808, rat striatum; from tissue; host or cells: rat striatum

D2 receptors = biological target: T3, D2 receptors (Rattus norvegicus, UniProt P61169); experiment: Radioligand displacement, D2 receptors, [3H]spiperone; assay type: binding; settings: rat striatum, read-out: Ki ± E.E. D2
T3 construct: (g) D2 receptors, [^3H]spiperone, rat striatum; from tissue; host or cells: rat striatum

5-HT2A receptors = biological target: T4, 5-HT2A receptors (Rattus norvegicus, UniProt P14842); experiment: Radioligand displacement, 5-HT2A receptors, [3H]ketanserin; assay type: binding; settings: rat cerebral cortex, read-out: Ki ± E.E. 5-HT2A
T4 construct: (b) 5-HT2A receptors, [^3H]ketanserin, rat cerebral cortex; from tissue; host or cells: rat cerebral cortex

5-HT3 receptors = biological target: T5, 5-HT3 receptors (Rattus norvegicus, UniProt P35563); experiment: Radioligand displacement, 5-HT3 receptors, [3H]LY 278584; assay type: binding; settings: [3H]LY 278584, rat cerebral cortex; read-out: Ki ± E.E. 5-HT3
T5 construct: (c) 5-HT3 receptors, [^3H]LY 278584, rat cerebral cortex; from tissue; host or cells: rat cerebral cortex
T5 sequence (P35563 24-483): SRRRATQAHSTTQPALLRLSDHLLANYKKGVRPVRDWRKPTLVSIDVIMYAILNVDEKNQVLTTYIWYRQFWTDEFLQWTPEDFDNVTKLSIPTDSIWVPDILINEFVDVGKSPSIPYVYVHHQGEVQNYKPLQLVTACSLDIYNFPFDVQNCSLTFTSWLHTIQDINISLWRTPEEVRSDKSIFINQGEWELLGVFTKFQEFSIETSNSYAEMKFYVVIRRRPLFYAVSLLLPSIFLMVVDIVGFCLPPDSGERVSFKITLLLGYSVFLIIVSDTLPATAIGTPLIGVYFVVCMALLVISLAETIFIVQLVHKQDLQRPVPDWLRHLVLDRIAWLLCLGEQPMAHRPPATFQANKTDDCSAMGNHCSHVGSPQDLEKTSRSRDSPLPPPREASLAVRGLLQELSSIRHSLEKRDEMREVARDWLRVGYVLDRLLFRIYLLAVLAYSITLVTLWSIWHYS

α1 receptors = experiment: Radioligand displacement, α1 receptors, [3H]prazosin; assay type: binding; settings: rat cerebral cortex, read-out: Ki ± E.E. α1
5-HT1A [2] = experiment: Mouse hypothermia test; assay type: in vivo
Excerpt: All compounds previously characterized in vitro as 5-HT1A agonists (Table 3) were delivered by subcutaneous injection to mice in order to quantify the hypothermia associated to stimulation of this serotonergic receptor subtype.

5-HT7 receptors = biological target: T6, 5-HT7 receptors (Rattus norvegicus, UniProt P32305); experiment: Radioligand displacement, 5-HT7 receptors, [3H]-5-CT; assay type: binding; settings: [3H]-5-CT, rat hypothalamus; read-out: Ki ± E.E. 5-HT7
T6 construct: (e) 5-HT7 receptors, [^3H]-5-CT, rat hypothalamus; from tissue; host or cells: rat hypothalamus

5-HT1A [3] = biological target: T7, 5-HT1A (Rattus norvegicus, UniProt P19327); experiment: Radioligand displacement, 5-HT1A receptors, [3H]-8-OH-DPAT; assay type: binding; design: (a) 5-HT1A receptors, [^3H]-8-OH-DPAT, rat cerebral cortex; from tissue; host or cells: rat cerebral cortex; settings: rat cerebral cortex, read-out: Ki ± E.E. 5-HT1A
T7 sequence (P19327 1-422): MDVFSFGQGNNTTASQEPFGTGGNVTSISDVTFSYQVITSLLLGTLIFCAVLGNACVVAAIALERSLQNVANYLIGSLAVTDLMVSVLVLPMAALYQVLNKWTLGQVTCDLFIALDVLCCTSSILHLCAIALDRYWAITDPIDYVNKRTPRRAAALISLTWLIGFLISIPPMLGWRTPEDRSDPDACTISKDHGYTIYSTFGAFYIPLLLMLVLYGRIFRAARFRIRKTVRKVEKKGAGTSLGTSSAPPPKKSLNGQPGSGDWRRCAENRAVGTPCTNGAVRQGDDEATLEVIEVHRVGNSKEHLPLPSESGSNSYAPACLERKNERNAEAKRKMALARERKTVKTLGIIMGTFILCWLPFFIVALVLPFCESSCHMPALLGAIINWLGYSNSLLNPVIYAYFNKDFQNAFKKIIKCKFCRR

hippocampal area CA1 = experiment: Transient global ischemia model in gerbils; assay type: in vivo; settings: gerbil, 1-5 mg/kg s.c., 30 min before and 24 and 48 h after ischemia
Excerpt: In the transient ischemia model in gerbils induced by temporary occlusion of both carotid arteries, the delivery of compounds no.

[4] = system: neurons of the hippocampal area CA1; experiment: Hyperpolarization of neurons of the hippocampal area CA1; assay type: cell-based; settings: dose-effect curves
5-HT1A [5] = biological target: T7, 5-HT1A; experiment: [35S]-GTPγS fixation test to coronal sections of rat brain; assay type: biochemical; design: fixation test of [^35S]-GTPγS to coronal sections of rat brain; from tissue; host or cells: coronal sections of rat brain; settings: 10 μM
Protocol: The in vitro agonist character of the new compounds was also evaluated in some cases by the fixation test of [^35S]-GTPγS to coronal sections of rat brain.

T6 sequence (P32305 whole entry): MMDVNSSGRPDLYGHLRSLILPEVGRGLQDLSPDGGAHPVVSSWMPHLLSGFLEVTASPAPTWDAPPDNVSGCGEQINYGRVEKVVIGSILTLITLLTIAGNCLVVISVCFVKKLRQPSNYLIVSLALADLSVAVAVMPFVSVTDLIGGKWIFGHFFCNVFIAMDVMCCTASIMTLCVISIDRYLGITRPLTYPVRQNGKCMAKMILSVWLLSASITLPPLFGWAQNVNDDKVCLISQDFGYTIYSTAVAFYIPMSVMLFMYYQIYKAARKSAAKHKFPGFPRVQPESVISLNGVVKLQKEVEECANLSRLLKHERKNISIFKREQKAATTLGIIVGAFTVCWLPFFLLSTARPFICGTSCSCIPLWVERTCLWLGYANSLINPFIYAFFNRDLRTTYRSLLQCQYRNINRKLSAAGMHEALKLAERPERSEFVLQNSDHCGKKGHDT
T4 sequence (P14842 whole entry): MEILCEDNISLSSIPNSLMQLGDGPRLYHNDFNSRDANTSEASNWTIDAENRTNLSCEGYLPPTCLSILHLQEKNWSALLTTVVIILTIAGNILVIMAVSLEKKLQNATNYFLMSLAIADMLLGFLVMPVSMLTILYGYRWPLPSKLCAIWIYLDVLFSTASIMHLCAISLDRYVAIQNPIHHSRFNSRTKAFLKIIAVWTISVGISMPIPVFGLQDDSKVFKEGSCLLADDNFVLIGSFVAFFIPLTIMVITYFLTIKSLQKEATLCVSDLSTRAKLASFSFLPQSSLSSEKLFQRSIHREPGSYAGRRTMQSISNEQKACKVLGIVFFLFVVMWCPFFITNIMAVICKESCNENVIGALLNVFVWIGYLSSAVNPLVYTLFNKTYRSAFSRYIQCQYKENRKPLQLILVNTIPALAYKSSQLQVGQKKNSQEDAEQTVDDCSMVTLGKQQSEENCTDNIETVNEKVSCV
T3 sequence (P61169 whole entry): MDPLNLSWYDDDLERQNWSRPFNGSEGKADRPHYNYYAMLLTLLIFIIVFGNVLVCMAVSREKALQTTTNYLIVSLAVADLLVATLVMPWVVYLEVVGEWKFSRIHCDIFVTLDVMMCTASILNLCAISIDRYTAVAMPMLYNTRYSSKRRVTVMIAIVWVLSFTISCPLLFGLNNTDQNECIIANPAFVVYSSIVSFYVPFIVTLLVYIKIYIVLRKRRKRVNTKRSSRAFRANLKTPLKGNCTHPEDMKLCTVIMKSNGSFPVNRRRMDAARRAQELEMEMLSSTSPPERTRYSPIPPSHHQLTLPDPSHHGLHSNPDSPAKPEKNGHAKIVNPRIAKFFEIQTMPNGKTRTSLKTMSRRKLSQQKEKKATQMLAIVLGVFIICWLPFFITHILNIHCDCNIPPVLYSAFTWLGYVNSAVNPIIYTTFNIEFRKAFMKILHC
T2 sequence (Q62758 whole entry): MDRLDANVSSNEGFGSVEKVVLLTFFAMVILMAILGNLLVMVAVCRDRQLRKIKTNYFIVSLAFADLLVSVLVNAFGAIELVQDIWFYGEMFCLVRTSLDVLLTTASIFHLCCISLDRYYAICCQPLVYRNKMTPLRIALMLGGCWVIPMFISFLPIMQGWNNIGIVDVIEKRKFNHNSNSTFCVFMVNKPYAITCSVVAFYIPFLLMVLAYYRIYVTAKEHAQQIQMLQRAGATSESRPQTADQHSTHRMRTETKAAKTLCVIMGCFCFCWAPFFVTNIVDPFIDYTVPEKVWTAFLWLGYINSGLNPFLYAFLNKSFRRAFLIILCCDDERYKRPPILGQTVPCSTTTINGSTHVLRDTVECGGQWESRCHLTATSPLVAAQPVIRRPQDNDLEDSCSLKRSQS

| SMILES | EC50 (5-human HT1A receptor) [nM] | % Maximum inhibition (5-human HT1A receptor) [%] | Neuroprotective effect in serum deprivation [1] | Ki (5-HT4 receptors) [nM] | Ki (D2 receptors) [nM] | Ki (5-HT2A receptors) [nM] | Ki (5-HT3 receptors) [nM] | Ki (α1 receptors) [nM] | Minimum effective dosage (5-HT1A [2]; subcutaneous injection, rectal temperature) [mg/kg] | Hypothermic effect (5-HT1A [2]; subcutaneous, at minimum effective dose) [°C] | Ki (5-HT7 receptors) [nM] | Ki (5-HT1A [3]) [nM] | Prevention of ischemic injury in hippocampal area CA1 (Nissl stain) (hippocampal area CA1) | Potency in hyperpolarization test compared with 8-OH-DPAT [4] | [35S]-GTPγS fixation compared with 8-OH-DPAT (5-HT1A [5]) |
| --- | --- | --- | --- | --- | --- | --- | --- | --- | --- | --- | --- | --- | --- | --- | --- |
| O=C1C2CCCN2C(=O)N1CCCCNCCOc1ccccc1 (stereo not drawn) [Compound 12, 2-[4-[2-(Phenoxy)ethylamine]butyl]-1,3-dioxoperhydropyrrolo[1,2-c]imidazol] | 76.2 | 87.4 | the degree of protection was somewhat below | > 10000 | > 1000 | > 10000 | > 1000 | > 1000 | 2.5 | 1.4 | > 1000 | 25.5 ± 0.9 | significantly prevented the injury |  |  |
| COc1ccccc1CCCCNCCCCN1C(=O)C2CCCN2C1=O (stereo not drawn) [Compound 20, 2-[4-[4-(o-Methoxyphenyl)butylamine]butyl]-1,3-dioxoperhydropyrrolo[1,2-c]imidazol] |  |  |  | > 10000 | > 10000 | > 10000 | > 1000 | > 1000 |  |  | > 10000 | 138 ± 26.3 |  |  |  |
| COc1ccccc1CCCNCCCCN1C(=O)C2CCCN2C1=O (stereo not drawn) [Compound 19, 2-[4-[3-(o-Methoxyphenyl)propylamine]butyl]-1,3-dioxoperhydropyrrolo[1,2-c]imidazol] |  |  |  | > 10000 | > 10000 | > 1000 | > 10000 | > 1000 |  |  | > 10000 | 73.9 ± 5 |  |  |  |
| O=C1CSC(=O)N1CCCCNCCc1cccc2ccccc12 [Compound 10, 3-[4-[2-(Naphth-1-yl)ethylamine]butyl]-2,4-dioxothiazolidin] |  |  |  | > 1000 | > 10000 | > 1000 | > 1000 | > 1000 |  |  | > 10000 | 15 ± 1 |  |  |  |
| O=C1C2SCCN2C(=O)N1CCCCNCC1CCc2ccccc2O1 (racemic) [Compound 2, (±)-2-[4-[(Chroman-2-yl)methylamine]butyl]-1,3-dioxoperhydroimidazo[1,5-b]thiazol] | 18.9 | 94.5 |  | > 10000 | > 10000 | > 1000 | > 10000 |  |  |  |  | 19.9 ± 6 |  | indistinguishable in potency to that of the 5-HT1A, 8-OH-DPAT type agonist |  |
| O=C1CSC(=O)N1CCCCNCCOc1ccccc1 [Compound 13, 3-[4-[2-(Phenoxy)ethylamine]butyl]-2,4-dioxothiazolidin] |  |  |  | > 1000 | > 10000 | > 10000 | > 10000 | 26.9 ± 4.5 |  |  | 55 ± 0.3 | 9.8 ± 0.7 |  |  |  |
| O=C1C2CSCN2C(=O)N1CCCCNCC1CCc2ccccc2O1 (racemic) [Compound 3, (±)-2-[4-[(Chroman-2-yl)methylamine]butyl]-1,3-dioxoperhydroimidazo[1,5-c]-thiazol] | 31.5 | 89.3 |  |  |  |  |  |  |  |  |  | 13.2 ± 1 |  |  | especially similar to those obtained with the 5-HT1A, 8-OH-DPAT agonist prototype |
| O=C1C2CCCN2C(=O)N1CCCCNCc1nc2ccccc2[nH]1 (stereo not drawn) [Compound 16, 2-[4-[(Benzimidazol-2-yl)methylamine]butyl]-1,3-dioxoperhydropyrrolo[1,2-c]imidazol] |  |  |  | > 10000 | > 10000 | > 10000 | > 1000 | > 1000 |  |  | > 10000 | > 10000 |  |  |  |
| O=C1CSC(=O)N1CCCCNCC1CCc2ccccc2O1 (racemic) [Compound 4, (±)-3-[4-[(Chroman-2-yl)methylamine]butyl]-2,4-dioxothiazolidin] | 11.6 | 89.6 |  |  |  |  |  |  |  |  |  | 30.1 ± 0.6 |  |  |  |
